{"source": "patent US20080206335A1", "about": "“[…] CONTROLLED RELEASE SELECTIVE SEROTONIN […] INHIBITOR FORMULATIONS” (priority 1999, published 2008)", "origin": "cited, not measured here", "conditions": "steady state after multiple oral doses of 100 mg/day, healthy young volunteers"}
{"compound": "COCCCC/C(=N\\OCCN)c1ccc(C(F)(F)F)cc1.O=C(O)/C=C\\C(=O)O", "note": "[fluvoxamine, 5-methoxy-4′-(trifluoromethyl)valerophenone-(E)-O-(2-aminoethyl) oxime maleate (1:1)]", "values": [{"measurement": "plasma elimination half-life", "value": 15.6, "unit": "h"}]}
